Some results are limits rather than exact numbers.

The source of these data is patent publication US10562878B2, “Cycloalkylamines as monoamine reuptake inhibitors” (Sunovion Pharmaceuticals Inc., priority 2006, dated 2020).

Test [1] addresses human dopamine transporter (Homo sapiens (Human), UniProt Q01959). The test can be described thus: Dopamine functional uptake assay, recombinant human transporter in CHO-K1 or HEK293 cells. The format is cell-based. The following applies: read-out: hDAT IC50.
The target of test [2] is human serotonin transporter (Homo sapiens (Human), UniProt P31645). The experiment in a line: Serotonin functional uptake assay, recombinant human transporter in HEK-293 cells. The format is cell-based. The following applies: Human serotonin transporter uptake; read-out: hSERT IC50.
The target of test [3] is 5-HT Transporter (SERT) sites in mouse brain (Mus musculus (Mouse), UniProt Q60857). The experiment in a line: Ex vivo [3H] citalopram binding to SERT sites in mouse brain after oral dosing. The following applies: mice, 60 min after treatment.
Test [4] addresses DA Transporter (DAT) sites in mouse brain (Mus musculus (Mouse), UniProt Q61327). The experiment in a line: Ex vivo [3H] WIN 35428 binding to DAT sites in mouse brain after oral dosing. Conditions: mice, 60 min after treatment.

Chain of human dopamine transporter (Q01959 whole entry): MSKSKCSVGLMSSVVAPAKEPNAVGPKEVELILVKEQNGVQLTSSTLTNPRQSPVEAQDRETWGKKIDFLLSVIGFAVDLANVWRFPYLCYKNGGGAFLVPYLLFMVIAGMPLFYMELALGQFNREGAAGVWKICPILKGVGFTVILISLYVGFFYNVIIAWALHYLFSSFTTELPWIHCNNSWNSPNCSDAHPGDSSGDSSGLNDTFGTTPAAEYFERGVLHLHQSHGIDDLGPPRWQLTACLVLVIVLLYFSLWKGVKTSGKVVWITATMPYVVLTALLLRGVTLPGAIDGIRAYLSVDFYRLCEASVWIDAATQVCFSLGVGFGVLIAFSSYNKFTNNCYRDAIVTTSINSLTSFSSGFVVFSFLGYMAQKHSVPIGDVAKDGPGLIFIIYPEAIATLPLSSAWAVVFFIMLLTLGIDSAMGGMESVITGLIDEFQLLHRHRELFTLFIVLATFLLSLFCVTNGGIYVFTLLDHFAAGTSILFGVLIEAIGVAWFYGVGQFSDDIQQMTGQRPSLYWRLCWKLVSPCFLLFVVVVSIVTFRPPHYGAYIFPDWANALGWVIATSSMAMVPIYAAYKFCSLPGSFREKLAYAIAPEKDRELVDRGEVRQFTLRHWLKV
Chain of human serotonin transporter (P31645 whole entry): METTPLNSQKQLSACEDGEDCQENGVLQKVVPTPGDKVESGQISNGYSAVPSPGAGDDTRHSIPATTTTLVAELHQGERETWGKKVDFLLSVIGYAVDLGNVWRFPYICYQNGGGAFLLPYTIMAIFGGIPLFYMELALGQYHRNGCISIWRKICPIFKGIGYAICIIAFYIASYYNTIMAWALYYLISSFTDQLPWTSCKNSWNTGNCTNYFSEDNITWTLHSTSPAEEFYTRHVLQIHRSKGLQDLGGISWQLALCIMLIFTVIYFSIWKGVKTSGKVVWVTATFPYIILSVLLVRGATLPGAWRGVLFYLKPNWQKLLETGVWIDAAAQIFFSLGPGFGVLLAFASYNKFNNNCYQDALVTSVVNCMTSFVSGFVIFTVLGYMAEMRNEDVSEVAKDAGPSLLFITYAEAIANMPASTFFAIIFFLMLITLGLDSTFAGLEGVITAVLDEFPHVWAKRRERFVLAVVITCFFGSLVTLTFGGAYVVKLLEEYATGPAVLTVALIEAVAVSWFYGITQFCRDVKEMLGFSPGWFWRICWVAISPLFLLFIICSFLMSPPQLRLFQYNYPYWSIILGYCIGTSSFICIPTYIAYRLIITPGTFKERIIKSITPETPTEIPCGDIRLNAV

Regarding `CNC[C@]1(c2ccc(Cl)cc2)CCCC[C@H]1O` (single isomer, unassigned) [136 E1, trans-2-(4-chlorophenyl)-2-((methylamino)methyl)-cyclohexanol], the IC50 – broadly, the point on the concentration scale where inhibition reaches its midpoint – in test [1] is 2.87 µM. On the same count and under the same terms, the figure for `CNC[C@]1(c2ccc(Cl)cc2)CCCC[C@H]1O` (single isomer, unassigned) [136 E2, trans-2-(4-chlorophenyl)-2-((methylamino)methyl)-cyclohexanol] is 3.37 µM.

On to `OC1CCCC1NCC1(c2ccc(Cl)c(Cl)c2)CCCCC1` (racemic) [Compound 116, (±) 2-((1-(3,4-dichlorophenyl)cyclohexyl)methylamino)cyclopentanol], for which the IC50 was 2.06 µM in test [2] and 0.003 µM in test [1]. Turning to `CNC[C@]1(c2ccc(OC)cc2)CCCC[C@H]1O` (single isomer, unassigned) [140 E2, (±) trans-2-(4-Methoxyphenyl)-2-((methylamino)methyl)cyclohexanol], in test [1], the IC50 turned out to be 5.67 µM. For `CN(C)C[C@@]1(c2ccc(C(F)(F)F)cc2)CCCC[C@H]1O` (single isomer, unassigned) [159 E2, cis-2-((dimethylamino)methyl)-2-(4-(trifluoromethyl)phenyl)cyclohexanol], the IC50 in test [2] worked out at 0.042 µM; in test [1], 2.31 µM.

Take `CNC[C@]1(c2ccc(OC(F)(F)F)cc2)CCCC[C@H]1O` (single isomer, unassigned) [146 E2, trans-2-((Methylamino)methyl)-2-(4-(trifluoromethoxy)phenyl) cyclohexanol]: the IC50 in test [2] worked out at 2.28 µM. For the compound `CN(C)C[C@]1(c2ccc(C(F)(F)F)cc2)CCCC[C@H]1O` (single isomer, unassigned) [160 E1, trans-2-((dimethylamino)methyl)-2-(4-(trifluoromethyl)phenyl)cyclohexanol], the values for the IC50 in test [2] and in test [1] were 7.19 µM and 9.72 µM, respectively.

With `CNC[C@]1(c2cccc(Cl)c2)CCCC[C@H]1O` (single isomer, unassigned) [138 E2, trans-2-(3-chlorophenyl)-2-((methylamino)methyl)cyclohexanol], the figures for the IC50 in test [2] and in test [1] were 7 µM and 2.54 µM, respectively.

In the case of `CNC[C@]1(c2ccc(Cl)c(Cl)c2)CC[C@H](O)CC1` [Compound 287, cis-4-(3,4-dichlorophenyl)-4-((methylamino)methyl)cyclohexanol], the results for the IC50 in test [2] and in test [1] were 1.04 µM and 0.192 µM, respectively. Take `CNC[C@@]1(c2ccc(C(F)(F)F)cc2)CCCC[C@H]1O` (single isomer, unassigned) [143 E2, cis-2-((methylamino)methyl)-2-(4-(trifluoromethyl)phenyl)cyclohexanol]: the IC50 in test [2] worked out at 7.17 µM. As to `CO[C@@H]1CCC[C@@](CN)(c2ccc(Cl)c(Cl)c2)C1` [Compound 192], the results for the IC50 in test [2] and in test [1] were above 10 µM and 1.96 µM, respectively.

As for `COc1ccc([C@@]2(CN(C)C)CCCC[C@H]2O)cc1` (single isomer, unassigned) [156 E1, trans-2-((dimethylamino)methyl)-2-(4-methoxyphenyl)cyclohexanol], the IC50 in test [2] is 0.076 µM; in test [1], 1.31 µM.

For `CNC[C@@]1(c2ccc(OC(F)(F)F)cc2)CCCC[C@H]1O` (single isomer, unassigned) [145 E1, cis-2-((Methylamino)methyl)-2-(4-(trifluoromethoxy)phenyl) cyclohexanol], the results for the IC50 in test [2] and in test [1] were 0.075 µM and 4.73 µM, respectively.

On to `CN(C)C[C@]1(c2ccc(Cl)c(Cl)c2)CCC[C@H](O)C1` (single isomer, unassigned) [190 E1, Cis-3-(3,4-dichlorophenyl)-3-((dimethylamino)methyl)cyclohexanol], for which, in test [1], the IC50 was 0.024 µM. Still for that read-out and setting: with `CC1(O)CCC(CN)(c2ccc(Cl)c(Cl)c2)CC1` (stereo not shown) [Compound 275, 4-(aminomethyl)-4-(3,4-dichlorophenyl)-1-methylcyclohexanol] the figure was 0.518 µM.

As for `CN(C)C[C@@]1(c2ccc(Cl)c(F)c2)CCCC[C@H]1O` (single isomer, unassigned) [157 E1, Cis-2-(4-chloro-3-fluorophenyl)-2-((dimethylamino)methyl)cyclohexanol], the IC50 in test [2] is 1.3 µM; in test [1], 0.575 µM.

On to `NC[C@@]1(c2ccc(Cl)c(Cl)c2)CCC[C@H](O)C1` (single isomer, unassigned) [185 E1, Trans-3-(aminomethyl)-3-(3,4-dichlorophenyl)cyclohexanol], for which the IC50 in test [1] turned out to be 0.421 µM. `CN(C)C[C@]1(c2ccc(Cl)c(F)c2)CCCC[C@H]1O` (single isomer, unassigned) [158 E2, Trans-2-(4-chloro-3-fluorophenyl)-2-((dimethylamino)methyl)cyclohexanol]: the results for the IC50 in test [2] and in test [1] were 2.99 µM and 5.02 µM, respectively. Taken in the same sequence, the figures for `CNC[C@@]1(c2ccc(Cl)c(Cl)c2)CCCC[C@H]1C` (racemic) [Compound 176, (±) cis-1-(1-(3,4-dichlorophenyl)-2-methylcyclohexyl)-N-methylmethanamine] were 0.533 µM and 0.775 µM. In the case of `CNC[C@]1(c2ccc(C(F)(F)F)cc2)CCCC[C@H]1O` (single isomer, unassigned) [144 E1, trans-2-((Methylamino)methyl)-2-(4-(trifluoromethyl)phenyl) cyclohexanol], the IC50 in test [2] stood at 5.63 µM.

Regarding `CC1(O)CCC(CN)(c2ccc(Cl)c(Cl)c2)CC1` (stereo not shown) [Compound 272, 4-(aminomethyl)-4-(3,4-dichlorophenyl)-1-methylcyclohexanol], the IC50 in test [1] was 2.6 µM. With `CNC(=O)[C@@]1(c2ccc3ccccc3c2)CCCC[C@H]1O` (relative stereo) [Compound 300, cis-2-hydroxy-N-methyl-1-(naphthalen-2-yl)cyclohexanecarboxamide], the results for the IC50 in test [2] and in test [1] were above 10 µM and 1.73 µM, respectively.

With `CN(C)C[C@]1(c2ccc(Cl)c(Cl)c2)CCCC[C@H]1O` (single isomer, unassigned) [153 E1, trans-2-(3,4-dichlorophenyl)-2-((dimethylamino)methyl)cyclohexanol], the IC50 in test [2] was 0.017 µM; in test [1], 0.085 µM. For `NC[C@]1(c2ccc(Cl)c(Cl)c2)CCC[C@H](O)C1` (single isomer, unassigned) [184 E1, Cis-3-(aminomethyl)-3-(3,4-dichlorophenyl)cyclohexanol], in test [1], the IC50 came out at 0.213 µM.

Regarding `CN(C)C[C@@]1(c2ccc(Cl)c(Cl)c2)CCCC[C@H]1O` (single isomer, unassigned) [152 E1, cis-2-(3,4-dichlorophenyl)-2-((dimethylamino)methyl)cyclohexanol], the IC50 was 0.405 µM in test [2] and 0.018 µM in test [1]. The matching figures for `CN(C)C[C@]1(c2ccc(Cl)cc2)CCCC[C@H]1O` (single isomer, unassigned) [154 E1, trans-2-(4-chlorophenyl)-2-((dimethylamino)methyl)cyclohexanol]: 2.17 µM and 0.795 µM.

As for `NC[C@]1(c2ccc(Cl)c(Cl)c2)CC[C@H](O)CC1` [Compound 299, (1s,4s)-4-(aminomethyl)-4-(3,4-dichlorophenyl)cyclohexanol], the IC50 in test [2] amounted to 3.87 µM.

As to `NC[C@@]1(c2ccc(Cl)c(Cl)c2)CCC[C@H](O)C1` (single isomer, unassigned) [185 E2, Trans-3-(aminomethyl)-3-(3,4-dichlorophenyl)cyclohexanol], the IC50 in test [1] is 0.121 µM. As to `CNC(C)C1(c2ccc3ccccc3c2)CCCCC1` (single isomer, unassigned) [58 E1, N-methyl-1-(1-(naphthalen-2-yl)cyclohexyl)ethanamine], the “SERT Mean Specific Binding ± S.E.M.” value in test [3] (1 mg/kg PO) is on record as 3245 ± 107 dpm; in test [3] (3 mg/kg PO) it was 3021 ± 182 dpm; in test [3] (10 mg/kg PO), 1799 ± 115 dpm; in test [3] (30 mg/kg PO) it was 469 ± 43 dpm. Moreover, the receptor occupancy at 1 mg/kg in test [3] (mouse, 1 mg/kg PO) was 5%; in test [4] (mouse, 1 mg/kg PO) it was 7%. Also, the receptor occupancy at 3 mg/kg was 11% in test [3] (mouse, 3 mg/kg PO) and 11% in test [4] (mouse, 3 mg/kg PO). In addition, the receptor occupancy at 10 mg/kg in test [3] (mouse, 10 mg/kg PO) is 47%; in test [4] (mouse, 10 mg/kg PO), -2%. The receptor occupancy at 30 mg/kg in test [3] (mouse, 30 mg/kg PO) was 86%; in test [4] (mouse, 30 mg/kg PO) it was 24%. The “DAT Mean Specific Binding ± S.E.M.” value is 15732 ± 1360 dpm in test [4] (1 mg/kg PO), 14938 ± 2613 dpm in test [4] (3 mg/kg PO), 17215 ± 2151 dpm in test [4] (10 mg/kg PO) and 12876 ± 2152 dpm in test [4] (30 mg/kg PO). Take `NC[C@]1(c2ccc(Cl)c(Cl)c2)CCC[C@H](O)C1` (single isomer, unassigned) [184 E2, Cis-3-(aminomethyl)-3-(3,4-dichlorophenyl)cyclohexanol]: in test [1], the IC50 worked out at 0.789 µM. `COc1ccc([C@]2(CN(C)C)CCCC[C@H]2O)cc1` (single isomer, unassigned) [155 E2, Cis-2-((dimethylamino)methyl)-2-(4-methoxyphenyl)cyclohexanol]: the IC50 in test [2] is 6.28 µM.

On to `COc1ccc([C@]2(CN(C)C)CCCC[C@H]2O)cc1` (single isomer, unassigned) [155 E1, Cis-2-((dimethylamino)methyl)-2-(4-methoxyphenyl)cyclohexanol], for which, in test [2], the IC50 is 2.99 µM. Take `CN(C)C[C@@]1(c2ccc(Cl)c(Cl)c2)CCC[C@H](O)C1` (single isomer, unassigned) [191 E2, Trans-3-(3,4-dichlorophenyl)-3-((dimethylamino)methyl)cyclohexanol]: the IC50 in test [1] amounted to 0.002 µM. Consider `CNC[C@]1(c2ccc(OC(F)(F)F)cc2)CCCC[C@H]1O` (single isomer, unassigned) [146 E1, trans-2-((Methylamino)methyl)-2-(4-(trifluoromethoxy)phenyl) cyclohexanol], for which the IC50 in test [2] is 4.54 µM.
